Experimental data reported in patent publication US10131659B2, “Iodonium analogs as inhibitors of NADPH oxidases and other flavin dehydrogenases; formulations thereof; and uses thereof” (priority 2014, dated 2018).

Key:
[1] = test system: HT-29 human colon cancer cells; details: Free Rad. Biol. Med. 57: 162-165, 2013; cited from earlier work
[2] = test system: ROS production in HT-29 human colon cancer cells; test: ROS production in HT-29 cells (chemiluminescence / DCF analytical cytometry); type: cell-based; details: treatment for 24 hr with 10 nM
[3] = test system: HT-29 human colon cancer cells; test: Clonogenic assay, HT-29 cells; type: cell-based; details: for IC50: Homo sapiens
Method: Several iodonium analog compounds were analyzed for inhibition of HT-29 growth using a clonogenic assay performed as described in Doroshow et al Biochem. Biophys. Res. Commun. 135: 330-335, 1986.

[4] = test system: HT-29 human colon cancer cells; test: Growth inhibition of HT-29 cells by MTT assay; type: cell-based; details: Homo sapiens, HT-29; 48 hr drug exposure; read-out: IC50, HT-29 human colon cancer cell growth
Method: The compounds were analyzed for growth inhibition of HT-29 human colon cancer cells by MTT assay: 48 hr, drug exposures over several orders of concentration. The MTT assay was performed as described in Wu et al J. Immunology 190: 1859-1872, 2013.

In the case of c1ccc2c(c1)[I+]c1ccccc1-2 [Compound 13, Diphenyleneiodonium chloride, reference compound], the “effect on cell cycle progression” value [1] is listed as “only G1 block”, the “ROS production in HT-29 cells” value [2] is listed as “significantly decreased” and the “cytotoxic or cytostatic character” value [3] is listed as “cytostatic”. For the same molecule, the “exposure required to inhibit growth / cell reproduction” value [3] was “requires prolonged exposure”, the IC50 ([3]; HT-29, 240 h, 10 days exposure, read-out: IC50 clonogenic survival, 10 days drug exposure) was ~10 nM and the IC50 ([3]; HT-29, read-out: IC50 (±SE) clonogenic survival, 2 hrs drug exposure, 2 hrs exposure) was 9300 ± 3900 nM. For the same molecule, the IC50 ([3]; HT-29, read-out: IC50 (±SE) clonogenic survival, 6 hrs drug exposure, 6 hrs exposure) was 799 ± 180 nM and the IC50 [4] was 300 nM.
